Assays:
[1] = target: T1, Protein arginine N-methyltransferase 7 (Mus musculus, UniProt Q922X9); assay: Inhibition of PRMT7 in mouse C2C12 cells assessed as reduction in HSP70 methylation; format: cell-based
T1 sequence (Q922X9 whole entry): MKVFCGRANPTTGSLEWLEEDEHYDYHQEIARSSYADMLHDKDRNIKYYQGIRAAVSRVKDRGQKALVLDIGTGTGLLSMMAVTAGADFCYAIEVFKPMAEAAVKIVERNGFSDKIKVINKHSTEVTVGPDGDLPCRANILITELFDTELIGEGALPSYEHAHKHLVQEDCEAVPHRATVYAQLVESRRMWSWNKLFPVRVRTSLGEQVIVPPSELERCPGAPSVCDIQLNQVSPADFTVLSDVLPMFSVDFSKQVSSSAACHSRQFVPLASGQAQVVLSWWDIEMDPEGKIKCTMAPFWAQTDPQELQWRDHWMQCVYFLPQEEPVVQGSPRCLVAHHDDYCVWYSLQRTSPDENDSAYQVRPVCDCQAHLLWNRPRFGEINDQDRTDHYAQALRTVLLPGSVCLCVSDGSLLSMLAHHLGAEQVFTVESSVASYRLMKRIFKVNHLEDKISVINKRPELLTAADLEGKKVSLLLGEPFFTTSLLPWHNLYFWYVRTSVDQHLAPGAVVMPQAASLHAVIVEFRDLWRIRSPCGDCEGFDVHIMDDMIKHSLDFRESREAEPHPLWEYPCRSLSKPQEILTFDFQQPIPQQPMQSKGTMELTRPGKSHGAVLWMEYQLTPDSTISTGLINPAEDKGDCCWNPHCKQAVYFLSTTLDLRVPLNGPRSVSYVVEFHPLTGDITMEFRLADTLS

[2] = target: T2, Protein arginine N-methyltransferase 7 (Homo sapiens, UniProt Q9NVM4); assay: Inhibition of PRMT7 (unknown origin)
T2 sequence (Q9NVM4 whole entry): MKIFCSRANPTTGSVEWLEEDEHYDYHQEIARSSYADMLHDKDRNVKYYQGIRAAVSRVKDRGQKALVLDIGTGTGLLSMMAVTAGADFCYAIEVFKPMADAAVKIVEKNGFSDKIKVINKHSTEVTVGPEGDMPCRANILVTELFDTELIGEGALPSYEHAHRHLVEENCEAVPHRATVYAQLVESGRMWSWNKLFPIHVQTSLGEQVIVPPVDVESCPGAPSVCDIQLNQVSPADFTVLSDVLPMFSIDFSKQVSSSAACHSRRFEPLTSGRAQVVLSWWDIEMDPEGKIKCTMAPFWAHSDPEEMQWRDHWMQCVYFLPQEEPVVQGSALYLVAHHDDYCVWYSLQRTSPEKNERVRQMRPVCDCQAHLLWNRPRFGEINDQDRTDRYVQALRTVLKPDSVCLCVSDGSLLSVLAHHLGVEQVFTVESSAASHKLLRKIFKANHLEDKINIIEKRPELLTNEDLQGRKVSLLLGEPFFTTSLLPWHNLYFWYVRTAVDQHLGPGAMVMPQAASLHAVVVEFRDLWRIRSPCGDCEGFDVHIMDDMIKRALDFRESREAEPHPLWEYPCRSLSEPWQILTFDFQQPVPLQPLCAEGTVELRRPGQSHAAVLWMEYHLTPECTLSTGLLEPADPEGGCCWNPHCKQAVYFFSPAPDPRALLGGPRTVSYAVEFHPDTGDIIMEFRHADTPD

[3] = test system: PC-3; assay: Inhibition of cell growth in human PC-3 cells; format: functional, cell-based
[4] = test system: JeKo-1; assay: Inhibition of cell growth in human JeKo-1 cells; format: functional, cell-based
[5] = test system: ES-2; assay: Inhibition of cell growth in human ES2 cells; format: functional, cell-based

| Structure (SMILES) | IC50 [1] | IC50 [2] | IC50 [3] | IC50 [4] | IC50 [5] |
| --- | --- | --- | --- | --- | --- |
| CC1=C(C)C(=O)C(C(C)(C)CC(=O)N(CCCCSC[C@H]2O[C@@H](n3cnc4c(N)ncnc43)[C@H](O)[C@@H]2O)Cc2ccc(-c3ccc(Cl)cc3)cc2)=C(C)C1=O | 2400 nM |  |  |  |  |
| COc1cc(-c2ncc(F)c(Nc3ccc4cc(C)cc(N)c4c3)n2)cc(OC)c1OC |  | 2100 nM | < 10 µM | < 10 µM | < 10 µM |
